According to patent US9932300B2, “N,N′-diarylurea compounds and N,N′-diarylthiourea compounds as inhibitors of translation initiation” (President and Fellows of Harvard College, priority 2009, dated 2018):
“And” between values parts separate entries of the source, which are not always exact repeats. Equal entries are not always repeated.

System: eIF2-GTP-Met-tRNAi ternary complex
Assay: Ternary complex assay (dual luciferase, firefly/renilla ratio) in stable KLN-tTA/pBISA-DL(ATF-4) cells; HTS and hit confirmation
Assay type: cell-based, mouse
Set-up: Activity 10 uM / Activity 2.5 uM / Activity 5 uM: unit not given here
Conditions: confirmed hits of the screen (Table 5); for Activity 2.5 uM: compound at 2.5 uM; for Activity 10 uM: compound at 10 uM

Row | SMILES | Activity 2.5 uM | Activity 10 uM
1 | CCN(CC)C1=C/CC/C(c2ccccc2)=N/N=C\1c1ccccc1 [Compound 601076] | 2.48 | 3.17
2 | Cc1ccc2occ/c(=N\Nc3ccccc3)c2c1 [Compound 601994] | 3.42 | 5.21
3 | O=Cc1c(-c2ccccc2)nc2sc(-c3ccc4c(c3)OCO4)nn12 [Compound 602807] | 2.08 | 3.12
4 | C=C(CN1CCCC1)C(=O)c1ccc(OC)cc1.Cl [Compound 603554] | 0.35 | 8.45
5 | CC(C)(C)C1=CC(=CC=C2C=CN(CCCCCCCCCCCO)C=C2)C=C(C(C)(C)C)C1=O [Compound 603854] | 0.93 | 4.19
6 | Cl.NC[CH2][Sn]([c]1ccccc1)([CH]1CCCCC1)[CH]1CCCCC1 [Compound 604861] | 0.8 | 4.82
7 | Cc1c2c(c(C)c3c1C(=O)c1cc4c(cc1C3=O)OCO4)OC(C)(C)O2 [Compound 604868] | 0.86 | 5.36
8 | O=C(N/N=C/c1ccccc1O)c1ccccc1.[Cu+2] [Compound 607085] | 2.21 | 3.55
9 | CN(C)c1ccc(N=Nc2cccc(C(=O)[O-])c2)cc1.CN(C)c1ccc(N=Nc2cccc(C(=O)[O-])c2)cc1.NC1CCCCC1N.O=[N+]([O-])O.[Pt+4] [Compound 608144] | 3.82 | 112.47
10 | C(=N\Nc1ccc2ccccc2n1)/c1ccccn1.CC(=O)[O-].CC(=O)[O-].[Zn+2] [Compound 609211] | 5.68 | 18.74
11 | Cn1cc(/C=C/C(=O)c2ccccc2[N+](=O)[O-])c2ccccc21 [Compound 609810] | 2.44 | 4.69
12 | O=C(N/N=C/c1ccccc1[O-])c1ccccc1O.O=C(N/N=C/c1ccccc1[O-])c1ccccc1O.[Mn+2] [Compound 610051] | 1.52 | 9.23
13 | COC(=O)C1CCC(/C(C#N)=C2/CCC(C(=O)OC)[N-]2)=N1.COC(=O)C1CCC(/C(C#N)=C2/CCC(C(=O)OC)[N-]2)=N1.[Cu+2] (stereo not drawn) [Compound 617738] | 1.05 | 7.65
14 | CN1C/C(=C\c2ccccc2)C(=O)/C(=C/c2ccccc2)C1.Cl [Compound 618767] | 0.7 | 6.58
15 | [Cl][Sn]([CH2][CH2][Sn]([Cl])([c]1ccccc1)[c]1ccccc1)([c]1ccccc1)[c]1ccccc1 [Compound 620291] | 8.39 | 9.07
16 | CCC[CH2][Sn]([Cl])([CH2]CCC)[S]/C(C#N)=N/N=C/c1ccc(N(C)C)cc1 [Compound 620296] | 5.24 | 3.13
17 | C[n+]1[se]nc2ccccc21.Cc1ccc(S(=O)(=O)[O-])cc1 [Compound 620852] | 4.79 | 16.94
18 | Cc1c(C(=O)/C=C/c2ccccc2[N+](=O)[O-])[n+](=O)c2ccccc2n1[O-] [Compound 621482] | 1.17 | 5.15
19 | Cc1cc2c(cc1C)[n+]([O-])c(-c1nc3ccccc3s1)c(N)[n+]2[O-] [Compound 621504] | 14.68 | 

Row | SMILES | Activity 2.5 uM | Activity 10 uM
20 | COc1ccccc1NC(=S)N/N=C\c1cc(N=Nc2ccccc2)cc(OC)c1O [Compound 621792] | 1.27 | 3.75
21 | COc1cc(N=Nc2ccccc2)cc(/C=N/NC(=S)Nc2ccccc2)c1[O-].COc1cc(N=Nc2ccccc2)cc(/C=N/NC(=S)Nc2ccccc2)c1[O-].[Cu+2] [Compound 621794] | 9.24 | 6.6
22 | CSC(=Nc1ccccc1)/N=C(\SCc1ccccc1)N(C)C.I [Compound 622579] |  | 6.29 and 10.08
23 | CN(C)C1=NC2=S(SC(Nc3ccccc3)=N2)S1 (stereo not drawn) [Compound 622683] | 2.84 | 3.82
24 | BrC(Br)=C1C(=C(Br)Br)C(Br)C1Br (stereo not drawn) [Compound 624851] | 12.65 | 
25 | CC(=O)[O-].[O-]c1c(Cl)cc(Cl)cc1/C=N/Nc1ccccn1.[Zn+2] [Compound 625863] | 3.75 | 3.72
26 | COc1ccc2c(c1)CCc1c(CO)c(COC(=O)NC(C)C)n(C)c1-2 [Compound 627459] | 1.68 | 7.21
27 | CCC[CH2][Sn]1([CH2]CCC)[O]c2ccccc2NCC[N]1c1ccccc1O [Compound 628577] | 1.45 | 3.06
28 | Oc1ccccc1[N]1CCNc2ccccc2[O][Sn]1([c]1ccccc1)[c]1ccccc1 [Compound 628578] | 3.53 | 
29 | C=[CH][Sn]([CH]=C)([S]c1cccc2cccnc12)[S]c1cccc2cccnc12 [Compound 628594] | 3.94 | 
30 | COc1cc[c]([Hg][n+]2c[nH]c3[nH]cnc(=S)c32)cc1 [Compound 631943] | 6.31 | 
31 | Nc1nc(=S)c2c(nc[n]2[Hg][c]2ccc([N+](=O)[O-])cc2)[nH]1 [Compound 631945] | 0.76 | 5.72
32 | Cc1cc[c]([Hg][S]C(=S)NNc2ccccc2)cc1 [Compound 631946] | 13.13 | 
33 | COc1ccc(/C=N/Nc2nc(-c3cc4oc(=O)n(C)c4cc3Cl)cs2)cc1OC [Compound 632134] | 1.26 | 3.5
34 | [Cl][Ni][Cl].c1ccc(P(CCP(CCP(c2ccccc2)c2ccccc2)CCP(c2ccccc2)c2ccccc2)c2ccccc2)cc1 [Compound 633334] | 4.12 | 28.14
35 | F[P-](F)(F)(F)(F)F.[C-]#[O+].[C-]#[O+].[CH]1[CH][CH][CH][CH]1.[Mo].c1ccc(P(CC[As](c2ccccc2)c2ccccc2)CC[As](c2ccccc2)c2ccccc2)cc1 [Compound 633346] | 8.05 | 11.64
36 | F[C-](F)C(F)(F)C(F)(F)C(F)(F)C(F)(F)C(F)(F)C(F)(F)F.[CH]1[CH][CH][CH][CH]1.[Co+][I].c1ccc(P(CCP(c2ccccc2)c2ccccc2)c2ccccc2)cc1 [Compound 633992] | 13.09 | 
37 | C(=C\P(c1ccccc1)c1ccccc1)/P(c1ccccc1)c1ccccc1.F[C-](F)C(F)(F)C(F)(F)F.F[P-](F)(F)(F)(F)F.[CH]1[CH][CH][CH][CH]1.[Co+2] [Compound 633995] | 14.38 | 11.56
38 | F[C-](C(F)(F)F)C(F)(F)F.[CH]1[CH][CH][CH][CH]1.[Co+][I].c1ccc(P(CCP(c2ccccc2)c2ccccc2)c2ccccc2)cc1 [Compound 633997] | 17.11 | 12.56

Row | SMILES | Activity 2.5 uM | Activity 10 uM
39 | F[C-](F)F.[C-]#[O+].[CH]1[CH][CH][CH][CH]1.[Mo].c1ccc(P(CCP(c2ccccc2)c2ccccc2)c2ccccc2)cc1 [Compound 634000] | 1.1 | 12.96
40 | F[C-](C(F)(F)F)C(F)(F)F.F[P-](F)(F)(F)(F)F.[CH]1[CH][CH][CH][CH]1.[Co+2].c1ccc(P(CCP(c2ccccc2)c2ccccc2)c2ccccc2)cc1 [Compound 634014] | 11.17 | 12.92
41 | C[Si](C)(C)c1ccc(CC2(Cc3ccc([Si](C)(C)C)cc3)CCNC2)cc1 [Compound 634157] | 0.8 | 3.99
42 | F[P-](F)(F)(F)(F)F.[Cl][Co+].c1ccc(P(CCP(CCP(c2ccccc2)c2ccccc2)CCP(c2ccccc2)c2ccccc2)c2ccccc2)cc1 [Compound 634838] | 13.01 | 30.9
43 | C[C-]=O.[C-]#[O+].[C-]#[O+].[Mn].c1ccc(P(CCP(c2ccccc2)c2ccccc2)CCP(c2ccccc2)c2ccccc2)cc1 [Compound 634842] | 1.71 | 8.37
44 | c1ccc(P(CC[As](c2ccccc2)c2ccccc2)CC[As](c2ccccc2)c2ccccc2)cc1 [Compound 635022] | 0.96 | 4.8
45 | [Pt].c1ccc(P(CCP(CCP(c2ccccc2)c2ccccc2)CCP(c2ccccc2)c2ccccc2)c2ccccc2)cc1 [Compound 635030] | 1.68 | 71.33
46 | [C-]#[O+].[C-]#[O+].[C-]#[O+].[C-]#[O+].[C-]#[O+].[CH]1[CH][CH][CH][CH]1.[CH]1[CH][CH][CH][CH]1.[Mo].[Mo].c1ccc(P(CCP(c2ccccc2)c2ccccc2)c2ccccc2)cc1 [Compound 635072] | 1.59 | 5.58
47 | CCOC(=O)/C(=C\c1ccc(N(C)C)cc1)[Se]c1ccccc1 [Compound 638113] | 1.87 | 3.17
48 | C/C(=N/O)c1ccc2c(c1)C(=NO)c1cc(/C(C)=N/O)ccc1-2 [Compound 642485] | 1.93 | 3.59
49 | CCOC(=O)C(C(=O)OCC)c1ccc([N+](=O)[O-])o1 [Compound 643139] |  | 7.511
50 | COc1ccc(C2=NN(C(C)=O)c3nc4ccccc4nc3O2)cc1 [Compound 643713] | 2.72 | 4.87
51 | CC1=NN(c2ccccc2)C(=O)C1=C1SCCCS1 [Compound 643762] | 1.99 | 3.47
52 | CCC[CH2][Sn]([CH2]CCC)([CH2]CCC)[O]c1cccccc1=O [Compound 644907] | 4.97 | 
53 | Nc1nc2c(N)cc(C(F)(F)F)cc2nc1-c1ccccc1 [Compound 645170] | 3 | 5.1
54 | CCCCCCN(CCCCCC)C(=S)N/N=C(\C)c1ccccn1 [Compound 647131] | 1.96 | 17.42
55 | CC(=O)Nc1ccc(C(O)/C(=N/N)c2nc3ccc(Cl)cc3[nH]c2=O)cc1 (stereo not drawn) [Compound 647590] | 2.31 | 3.22
56 | CCCN(CCC)c1c([N+](=O)[O-])cc(S(N)(=O)=O)cc1[N+](=O)[O-] [Compound 648479] | 2.55 | 3.37
